“And” between values parts separate entries of the source, which are not always exact repeats. Equal values may be shown once.
Legend:
FATZO mouse model [1] = test: Liver histology: NAFLD activity score, steatosis, inflammation, ballooning in FATZO mice on WDF, Example 5; assay type: in vivo; conditions: 4 weeks
Excerpt: NASH was induced in 60 male FATZO mice by a western diet (Research Diet #D12079B; fat 40% kcal, protein 17% kcal, carbohydrate 43% kcal) supplemented with 500 fructose in the drinking water (WDF) during a 16 week induction phase. Diets and water were available ad libitum. Littermate control male FATZO mice fed with a control diet (n=6, Purina #5008; fat 17% kcal, protein 27% kcal, carbohydrate 56% kcal) and sterile water were set up for control purpose. Mice were housed in plastic cages with microisolator. Sterilized bedding was replaced once a week. Mice were housed three per cage and maintained on a twelve hour light cycle throughout study duration. Room temperature was monitored daily and maintained at 22-25° C. Body weight was recorded every week during the induction phase.
Following 16 weeks diet induction, 6 mice remained on control diet (group 1, Control) while 60 induced mice were randomized on body weight and plasma glucose (fed) for assignment to the following treatments. FATZO mice were administered with test articles starting at 16 weeks post western diet NASH induction for 4 weeks. Test articles were administered by oral gavage. Animals were euthanized at 20 weeks post western diet NASH induction, and tissues were harvested for analysis.
[…], […]+G, LRQNAC, OCA and Vehicle were administered by oral gavage at a volume of 10 mL/kg throughout the study. Dosages were calculated by daily body weight. […], […]+G, LRQNAC, and Vehicle were administered twice per day (BID), while OCA was administered once a day (QD) in the morning. Mice receiving OCA once per day (QD), and one vehicle QD. Doses were administered by oral gavage at 0700 and 1800 by oral gavage for 4 weeks.
The liver tissues were fixed in Bouin's solution at 4° C. for 24 hours followed by baths of standard concentrations of alcohol then xylene to prepare the tissues for paraffin embedding.
After being embedded in paraffin and cooled, five-micron sections were cut and stained for routine H&E and Picric Sirius Red. A section of both right and left lobes of the livers were frozen in OCT for analysis of lipid content with Oil-Red-) staining. The Aperio whole slide digital imaging system (Scan Scope C S, Vista, CA) was used for imaging. All slides were imaged at 20×. The scan time ranged from 1.5 minutes to a maximum time of 2.25 minutes. The whole images were housed and stored in their Spectrum software system and images were shot from the whole slides.
The livers were evaluated using the NASH liver criteria for scoring. In this mouse study, one cross section of liver for each case was analyzed with the NASH score system. According to the published NASH CRN Scoring System, this scoring system comprises of NAFLD Activity Score (NAS), fibrosis stage and identification of NASH by pattern recognition. The NAS can range from 0 to 8 and is calculated by the sum of scores of steatosis (0-3), lobular inflammation (0-3) and hepatocyte ballooning (0-2) from H&E stained sections. Fibrosis was scored (0-4) from picrosirius red stained slides. […] Steatosis, lobular inflammation, hepatocyte. balloon degeneration, fibrosis, NAS and the presence of NASH by pattern recognition were systematically assessed. In this study we evaluated one total cross section of liver per mouse in this study. […] The pathology score was determined as 0, +1, +2, or +3. The lesions were scored on location (periportal, centrilobular, and mid zonal) and fat accumulation (focal, periportal, and/or centrilobular). […]

[2] = system: α-smooth muscle actin (αSMA), activated hepatic stellate cells; test: α-smooth muscle actin staining of liver sections (activated hepatic stellate cells) in STAM mice, Example 2; assay type: in vivo, mouse; conditions: A-1 1500 mg/kg twice daily, OCA 30 mg/kg once daily
Method: Amino Acid Composition A-1 and Obeticholic acid (6α-ethyl-chenodeoxycholic acid; “OCA”) were tested for their ability to treat NASH in the STAM™ model (Stelic Institute & Co., Tokyo, Japan; Saito K. et al., 2015 Sci Rep 5:12466). Two additional groups of normal C57BL/6 mice fed standard chow and vehicle treated STAM™ mice were included as controls. All animals receiving treatment or vehicle were treated starting at 6 weeks until 9 weeks of age. Compounds were administered via oral gavage, with a dose volume of 10 ml/kg. Amino Acid Composition A-1 was administered twice daily at a dose of 1500 mg/kg, and OCA was administered once daily at a dose of 30 mg/kg.
Amino Acid Composition A-1, OCA and Vehicle (described below) were administered by oral route in a volume of 10 mL/kg. Amino Acid Composition A-1 was solubilized in deionized water to 150 mg/ml (10 X). OCA (Advanced ChemBlocks Inc.) was resuspended in 0.5% methycellulose in water to 3 mg/ml (10 X). Amino Acid Composition A-1 was administered at a dose of 1500 mg/kg twice daily (9 am and 7 pm). OCA was administered at a dose of 30 mg/kg once daily (9 am).
Liver sections of all mice were stained for the marker α-smooth muscle actin (αSMA) to identify activated hepatic stellate cells. Images were quantified using the percent of positively stained area was used as a measure of stellate cell activation. […]

FATZO mouse model [3] = test: Liver fibrosis score and Sirius Red collagen staining in FATZO mice on WDF, Example 5; assay type: in vivo; conditions: oral, 4 weeks, LIVRQNAC + G 3885 mg/kg, LRQNAC 2469 mg/kg, OCA 30 mg/kg/day
Excerpt: (§1) NASH was induced in 60 male FATZO mice by a western diet (Research Diet #D12079B; fat 40% kcal, protein 17% kcal, carbohydrate 43% kcal) supplemented with 500 fructose in the drinking water (WDF) during a 16 week induction phase. Diets and water were available ad libitum. Littermate control male FATZO mice fed with a control diet (n=6, Purina #5008; fat 17% kcal, protein 27% kcal, carbohydrate 56% kcal) and sterile water were set up for control purpose. Mice were housed in plastic cages with microisolator. Sterilized bedding was replaced once a week. Mice were housed three per cage and maintained on a twelve hour light cycle throughout study duration. Room temperature was monitored daily and maintained at 22-25° C. Body weight was recorded every week during the induction phase. […]
(§2) […], […]+G, LRQNAC, OCA and Vehicle were administered by oral gavage at a volume of 10 mL/kg throughout the study. Dosages were calculated by daily body weight. […]
The livers were evaluated using the NASH liver criteria for scoring. In this mouse study, one cross section of liver for each case was analyzed with the NASH score system. […] The NAS can range from 0 to 8 and is calculated by the sum of scores of steatosis (0-3), lobular inflammation (0-3) and hepatocyte ballooning (0-2) from H&E stained sections. Fibrosis was scored (0-4) from picrosirius red stained slides. […]

FATZO mouse model [4] = test: Liver Oil Red O staining area in FATZO mice on WDF, Example 5; assay type: in vivo; conditions: oral, 4 weeks, LIVRQNAC + G 3885 mg/kg, LRQNAC 2469 mg/kg, OCA 30 mg/kg/day
Excerpt: as §1, §2
Aperio Automatic Image Quantitation was employed to quantify positive pixels of immunohistochemical staining, Oil-Red 0, and Sirius Red staining. The Positive Pixel Count algorithm was used to quantify the percentage of a specific stain present in a scanned slide image. A range of color (range of hues and saturation) and three intensity ranges (weak, positive, and strong) were masked and evaluated. […]

[5] = score 0-3, oral, LIVRQNAC + G 3885 mg/kg, LRQNAC 2469 mg/kg, OCA 30 mg/kg/day

CC[C@H]1[C@@H](O)[C@@H]2[C@H](CC[C@]3(C)[C@@H]([C@H](C)CCC(=O)O)CC[C@@H]23)[C@@]2(C)CC[C@@H](O)C[C@@H]12 [OCA, 6α-ethyl-chenodeoxycholic acid]
NAFLD activity score (NAS) compared to vehicle (FATZO mouse model [1]): no significant effect
Liver Pathology NAS (FATZO mouse model [1]; oral, LIVRQNAC + G 3885 mg/kg, LRQNAC 2469 mg/kg, OCA 30 mg/kg/day): 3.72 ± 0.147
Liver Pathology Ballooning (FATZO mouse model [1]; score 0-2, oral, LIVRQNAC + G 3885 mg/kg, LRQNAC 2469 mg/kg, OCA 30 mg/kg/day): 0.94 ± 0.056
Liver Pathology Inflammation (FATZO mouse model [1]; [5]): 1.0 ± 0.0
Liver Pathology Steatosis (FATZO mouse model [1]; [5]): 1.78 ± 0.147
Activated hepatic stellate cells (mean positively stained area, α-smooth muscle actin) ([2]; STAM mice, oral, 6 to 9 weeks of age): 1.562+/−0.31% and 1.562%
Activated hepatic stellate cells (positively stained area, α-smooth muscle actin): raw data ([2]; individual STAM mice): 1.51% and 1.49% (2×) and 1.17% and 1.13% and 2.03% and 1.87% and 1.97% and 1.46%
Fibrosis (score) (FATZO mouse model [3]): 0.67 ± 0.167
Sirius Red (collagen staining) (FATZO mouse model [3]): 1.59 ± 0.36
Oil Red O (staining area) (FATZO mouse model [4]): 0.24 ± 0.021

Source: patent publication US20240238232A1, “COMPOSITIONS AND METHODS FOR THE REDUCTION OR TREATMENT OF INSULIN RESISTANCE AND METABOLIC CONDITIONS” (AXCELLA HEALTH INC., priority 2018, published 2024)
